Source: patent US20250195629A1, “SITE-SPECIFIC BRAIN THERAPEUTICS” (William Marsh Rice University, priority 2023, published 2025)

Tested on: mice
Experiment: Weekly repeated RAID open field test over three weeks
Type: in vivo, mouse
Description: FIG. 15 includes data related to protein delivery and behavioral testing protocol repeated weekly over a course of three weeks. FIG. 15a illustrates weekly RAID-induced behavioral modulation including a first counterclockwise rotations graph measured in the open field test before and after administration of L-DOPA. FIG. 15b illustrates weekly RAID-induced behavioral modulation including a second counterclockwise rotations graph measured in the open field test before and after administration of L-DOPA. FIG. 15c illustrates weekly RAID-induced behavioral modulation including a first clockwise rotations graph measured in the open field test before and after administration of L-DOPA. FIG. 15d illustrates weekly RAID-induced behavioral modulation including a second clockwise rotations graph measured in the open field test before and after administration of L-DOPA. Data is presented as mean±s.e.m. n=7 mice for FUS alone group and n=14, 13, and 11 mice for the FUS+mAADC-IKVAV (SEQ ID NO: 23) group in weeks 1, 2, and 3, respectively; *P<0.05, **P<0.01, ns (not significant), using Two-way ANOVA with Sidak's multiple comparison test.
Locomotor behavior test—Two groups of mice underwent FUS-BBBO targeting two sites at left striatum immediately after intravenous injection of recombinant protein AADC-IKVAV (SEQ ID NO: 23) (n=14 mice for FUS+AADC-IKVAV group, 20 mg/mL, 250 mg/kg) or equivalent volume of PBS buffer (n=11 mice for FUS alone group). Another group without FUS-BBBO procedure served as wild type control (n=12 mice for WT group). After 46 h, the first session of behavioral test was performed in a custom-made non-transparent open field box (30.5 cm×30.5 cm) as a baseline. Each mouse was individually placed into the apparatus center with a light intensity and background noise at ˜320 lux and 46 dB (400 Hz peak), respectively. After a habituation period of 5 min, the locomotor activity of a freely-moving mouse was recorded for 15 min by a video tracking system (Stoelting Co.) consisting of an overhead camera connected to a computer with Any-Maze software. […]

`N[C@@H](Cc1ccc(O)c(O)c1)C(=O)O` [L-DOPA, reference compound] was tested, and the “reduction in clockwise rotations after L-DOPA” value (week 1, FUS-alone group) was 53±18%, the “reduction in counter-clockwise (ipsilateral) rotations after L-DOPA” value (week 1, control mice receiving FUS alone) was “not observed” and the “clockwise rotations after L-DOPA” value (week two, FUS-alone control group) was “no significant effects”.
